These are literature values, as cited in patent publication US11230722B2, “Nutritional supplements and therapeutic compositions comprising (r)-3-hydroxybutyrate derivatives” (Oxford University Innovation Limited, priority 2003, dated 2022).

Each structure is given as a SMILES string.

For this data set, the system named is gastric enzymes.

Consider `C[C@@H]1CC(=O)O[C@H](C)CC(=O)O[C@H](C)CC(=O)O1` [triolide, cyclic trimer of (R)-3-hydroxybutyrate], for which the absorption entry is “only poorly absorbed” and the “hydrolysis by gastric enzymes” value is given as “not efficiently hydrolyzed”.
